The test concerns the target T1, rabbit muscle glycogen phosphorylase (GPa) (Oryctolagus cuniculus, UniProt P00489).
T1 sequence (P00489 2-843 limits assumed): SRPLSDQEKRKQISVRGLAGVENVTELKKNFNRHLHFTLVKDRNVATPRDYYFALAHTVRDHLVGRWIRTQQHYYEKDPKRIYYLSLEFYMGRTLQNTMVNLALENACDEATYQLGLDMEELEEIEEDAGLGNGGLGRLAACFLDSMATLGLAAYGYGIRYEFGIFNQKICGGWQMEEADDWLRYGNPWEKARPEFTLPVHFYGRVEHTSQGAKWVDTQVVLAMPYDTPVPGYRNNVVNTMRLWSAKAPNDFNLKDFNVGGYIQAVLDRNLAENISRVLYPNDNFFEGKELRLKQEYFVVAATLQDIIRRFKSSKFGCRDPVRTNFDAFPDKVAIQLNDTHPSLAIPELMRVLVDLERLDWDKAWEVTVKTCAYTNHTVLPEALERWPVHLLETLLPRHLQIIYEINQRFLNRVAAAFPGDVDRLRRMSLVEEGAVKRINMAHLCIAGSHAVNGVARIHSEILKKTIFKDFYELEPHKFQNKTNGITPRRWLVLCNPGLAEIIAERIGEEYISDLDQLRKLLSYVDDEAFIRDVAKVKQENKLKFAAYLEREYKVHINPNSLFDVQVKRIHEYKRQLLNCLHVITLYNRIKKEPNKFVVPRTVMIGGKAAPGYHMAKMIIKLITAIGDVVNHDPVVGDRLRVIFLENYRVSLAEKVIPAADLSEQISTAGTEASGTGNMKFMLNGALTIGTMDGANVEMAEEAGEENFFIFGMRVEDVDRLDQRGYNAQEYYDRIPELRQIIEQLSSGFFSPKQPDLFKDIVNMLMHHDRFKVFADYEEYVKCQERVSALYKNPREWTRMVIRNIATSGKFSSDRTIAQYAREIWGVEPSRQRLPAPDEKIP
As to the kind of experiment: Glycogen phosphorylase in vitro inhibitory activity assay. The settings on record: GPa 250 ng/100 μl, 30° C. 20 minutes, colorimetry at 655 nm. It counts as biochemical. How it is done:
Glycogen Phosphorylase In Vitro Inhibitory Activity Assay
Preparation of reagents: 1) preparation of color developing solution: 5 g of ammonium molybdate was weighed, dissolved in 500 ml of 1M HCl and stirred with a stirrer until completely dissolved. Then the mixture was added with 190 mg of malachite green with stirring until completely dissolved. The solution prepared was wrapped with an aluminum foil to protect it from exposure to light; 2) preparation of buffer: {circumflex over (1)} 0.5958 g of Hepes was precisely weighed and dissolved in 5 ml H2O. […]
Determination of dose-response curve of rabbit muscle glycogen phosphorylase activity: a dose-response curve was determined by reading OD values of various concentrations of GPa solutions at 655 nm after added with a color developing solution. The amount of GPa can be 250 ng as determined from the dose-response curve.
Experimental procedure: 1) designing PC (positive control), Blank (blank control), positive drug (caffeine); 2) adding 52 μl of reaction buffer; 3) adding the test compound to a final concentration; 4) adding 1 μl of enzyme to a final concentration of 250 ng/100 μl; 5) adding 150 μl of the color developing solution; 6) reacting at 30° C. for 20 minutes; 7) colorimetry determination at a wavelength of 655 nm; 8) reading data and calculating inhibitory activity: Inhibitory Activity=(PC−test sample)/(PC−Blank)

The term IC50 denotes the concentration at which inhibition is half-maximal. Higher therefore signals a need for much substance. Take `O=C(Nc1ccc2c(c1)C(=O)NCCO2)c1cc2cc(Cl)ccc2[nH]1` [Example 1, 7-(5-Chloro-1H-indole-2-carboxamido)-3,4-dihydrobenzo[f][1,4]oxazepin-5(2H)-one]: the IC50 is under 0.1 µM.

For the origin of these results see US9868735B2, “Benzazepine ketone compounds as glycogen phosphorylase inhibitor, preparation method therefor, and medical uses” (CHENGDE MEDICAL UNIVERSITY, priority 2013, dated 2018).
